Assays:
[1] = test system: Glomerella lacenarium (Colletotrichum lacenarium); test: Glomerella lacenarium (Colletotrichum lacenarium) liquid culture / cucumber / preventative (anthracnose); format: cell-based; conditions: 20 ppm in the applied formulation, liquid culture in PDB, 24° C., 3 to 4 days after application, read-out: disease control (inhibition of growth, photometric) compared to untreated control
How it was run: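 Cryostored conidia in potato dextrose broth added to DMSO compound solution in microtiter plates, incubated at 24° C. Growth inhibition read photometrically 3 to 4 days after application, as percent control versus untreated check; compounds tested at 20 ppm.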

[2] = test system: Puccinia recondita f. Sp. Tritici; test: Puccinia recondita f. sp. tritici / wheat / leaf disc preventative (brown rust); format: in vivo; conditions: foliar, 200 ppm in the applied formulation, wheat leaf segments, preventative, assessed 7 to 9 days after application, read-out: disease control compared to untreated control leaf disks
How it was run: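 Wheat cv. Kanzler leaf segments on agar sprayed with formulated compound in water, inoculated with rust spores 1 day later. Incubated at 19° C, 75% rh, 12 h light/12 h dark; percent disease control versus untreated scored 7 to 9 days after application; tested at 200 ppm.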

[3] = test system: Puccinia recondita f. Sp. Tritici; test: Puccinia recondita f. sp. tritici / wheat / leaf disc curative (brown rust); format: in vivo; conditions: foliar, 200 ppm in the applied formulation, wheat leaf segments, curative (applied 1 day after inoculation), assessed 6 to 8 days after application, read-out: disease control compared to untreated control leaf disks
How it was run: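 Wheat cv. Kanzler leaf segments on agar were inoculated with spores, kept dark at 19° C, 75% RH, then sprayed with diluted formulated compound 1 day after inoculation (curative). Incubation continued at 19° C, 75% RH, 12 h light/12 h dark, with percent disease control versus untreated scored 6 to 8 days after application.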

[4] = test system: Phakopsora pachyrhizi; test: Phakopsora pachyrhizi / soybean / leaf disc preventative (Asian soybean rust); format: in vivo; conditions: foliar, 200 ppm in the applied formulation, soybean leaf disks, assessed 12 to 14 days after application, read-out: disease control compared to untreated control leaf disks
How it was run: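 Soybean leaf discs on water agar were sprayed with formulated compound diluted in water, then inoculated one day later with spore suspension on the lower leaf surface. Held 24-36 h dark at 20° C., 75% RH, then 12 h light/day; percent disease control versus untreated scored 12 to 14 days after application.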

CC(C)(C)C(=O)C(=O)NCc1ccc(-c2noc(C(F)(F)F)n2)cc1 [Compound 1.52, 3,3-dimethyl-2-oxo-N-[[4-[5-(trifluoromethyl)-1,2,4-oxadiazol-3-yl]phenyl]methyl]butanamide]
≥ 80%: inhibition at 20 ppm [1] | pest or weed control at 200 ppm [2] | pest or weed control at 200 ppm [3] | pest or weed control at 200 ppm [4]

O=C(NCc1ccc(-c2noc(C(F)(F)F)n2)cc1)C(=O)c1ccccc1 [Compound 1.75, 2-oxo-2-phenyl-N-[[4-[5-(trifluoromethyl)-1,2,4-oxadiazol-3-yl]phenyl]methyl]acetamide]
≥ 80%: inhibition at 20 ppm [1] | pest or weed control at 200 ppm [2] | pest or weed control at 200 ppm [3] | pest or weed control at 200 ppm [4]

CCC(=O)C(=O)NCc1ccc(-c2noc(C(F)(F)F)n2)c(F)c1F [Compound 1.80, N-[[2,3-difluoro-4-[5-(trifluoromethyl)-1,2,4-oxadiazol-3-yl]phenyl]methyl]-2-oxo-butanamide]
≥ 80%: inhibition at 20 ppm [1] | pest or weed control at 200 ppm [2] | pest or weed control at 200 ppm [3] | pest or weed control at 200 ppm [4]

CON(Cc1ccc(-c2noc(C(F)(F)F)n2)cc1F)C(=O)C(=O)c1ccco1 [Compound 1.83, N-[[2-fluoro-4-[5-(trifluoromethyl)-1,2,4-oxadiazol-3-yl]phenyl]methyl]-2-(2-furyl)-N-methoxy-2-oxo-acetamide]
≥ 80%: inhibition at 20 ppm [1] | pest or weed control at 200 ppm [2] | pest or weed control at 200 ppm [3] | pest or weed control at 200 ppm [4]

CN(Cc1ccc(-c2noc(C(F)(F)F)n2)cc1)C(=O)C(=O)C1CC1 [Compound 1.94, 2-cyclopropyl-N-methyl-2-oxo-N-[[4-[5-(trifluoromethyl)-1,2,4-oxadiazol-3-yl]phenyl]methyl]acetamide]
≥ 80%: inhibition at 20 ppm [1] | pest or weed control at 200 ppm [2] | pest or weed control at 200 ppm [3] | pest or weed control at 200 ppm [4]

CN(C)C(=O)C(=O)NCc1ccc(-c2noc(C(F)(F)F)n2)cc1Cl [Compound 4.96, N-[[2-chloro-4-[5-(trifluoromethyl)-1,2,4-oxadiazol-3-yl]phenyl]methyl]-N′,N′-dimethyl-oxamide]
≥ 80%: inhibition at 20 ppm [1] | pest or weed control at 200 ppm [2] | pest or weed control at 200 ppm [3] | pest or weed control at 200 ppm [4]

O=C(NCc1ccc(-c2noc(C(F)(F)F)n2)c(F)c1)C(=O)c1ccco1 [Compound 1.79, N-[[3-fluoro-4-[5-(trifluoromethyl)-1,2,4-oxadiazol-3-yl]phenyl]methyl]-2-(2-furyl)-2-oxo-acetamide]
≥ 80%: inhibition at 20 ppm [1] | pest or weed control at 200 ppm [2] | pest or weed control at 200 ppm [3] | pest or weed control at 200 ppm [4]

CON(Cc1ccc(-c2noc(C(F)(F)F)n2)cc1)C(=O)C(=O)N(C)C [Compound 4.39, N′-methoxy-N,N-dimethyl-N′-[[4-[5-(trifluoromethyl)-1,2,4-oxadiazol-3-yl]phenyl]methyl] oxamide]
≥ 80%: inhibition at 20 ppm [1] | pest or weed control at 200 ppm [2] | pest or weed control at 200 ppm [3] | pest or weed control at 200 ppm [4]

CC(C)(C)C(=O)C(=O)NCc1c(F)cc(-c2noc(C(F)(F)F)n2)cc1F [Compound 1.71, N-[[2,6-difluoro-4-[5-(trifluoromethyl)-1,2,4-oxadiazol-3-yl]phenyl]methyl]-3,3-dimethyl-2-oxo-butanamide]
≥ 80%: inhibition at 20 ppm [1] | pest or weed control at 200 ppm [2] | pest or weed control at 200 ppm [3] | pest or weed control at 200 ppm [4]

CC(C)CC(=O)C(=O)NCc1ccc(-c2noc(C(F)(F)F)n2)cc1 [Compound 1.50, 4-methyl-2-oxo-N-[[4-[5-(trifluoromethyl)-1,2,4-oxadiazol-3-yl]phenyl]methyl]pentanamide]
≥ 80%: inhibition at 20 ppm [1] | pest or weed control at 200 ppm [2] | pest or weed control at 200 ppm [3] | pest or weed control at 200 ppm [4]

CC(C)CC(=O)C(=O)NCc1ccc(-c2noc(C(F)(F)F)n2)cc1F [Compound 1.38, N-[[2-fluoro-4-[5-(trifluoromethyl)-1,2,4-oxadiazol-3-yl]phenyl]methyl]-4-methyl-2-oxo-pentanamide]
≥ 80%: inhibition at 20 ppm [1] | pest or weed control at 200 ppm [2] | pest or weed control at 200 ppm [3] | pest or weed control at 200 ppm [4]

CCC(=O)C(=O)N(CCO)Cc1ccc(-c2noc(C(F)(F)F)n2)cc1 [Compound 1.33, N-(2-hydroxyethyl)-2-oxo-N-[[4-[5-(trifluoromethyl)-1,2,4-oxadiazol-3-yl]phenyl]methyl]butanamide]
≥ 80%: inhibition at 20 ppm [1] | pest or weed control at 200 ppm [2] | pest or weed control at 200 ppm [3] | pest or weed control at 200 ppm [4]

CON(Cc1ccc(-c2noc(C(F)(F)F)n2)cc1)C(=O)C(=O)c1ccco1 [Compound 1.90, 2-(2-furyl)-N-methoxy-2-oxo-N-[[4-[5-(trifluoromethyl)-1,2,4-oxadiazol-3-yl]phenyl]methyl]acetamide]
≥ 80%: inhibition at 20 ppm [1] | pest or weed control at 200 ppm [2] | pest or weed control at 200 ppm [3] | pest or weed control at 200 ppm [4]

O=C(C(=O)N(Cc1ccc(-c2noc(C(F)(F)F)n2)cc1)C1CC1)C1CC1 [Compound 1.92, N,2-dicyclopropyl-2-oxo-N-[[4-[5-(trifluoromethyl)-1,2,4-oxadiazol-3-yl]phenyl]methyl]acetamide]
≥ 80%: inhibition at 20 ppm [1] | pest or weed control at 200 ppm [2] | pest or weed control at 200 ppm [3] | pest or weed control at 200 ppm [4]

NC(=O)C(=O)N(O)Cc1ccc(-c2noc(C(F)(F)F)n2)cc1 [Compound 4.91, N′-hydroxy-N′-[[4-[5-(trifluoromethyl)-1,2,4-oxadiazol-3-yl]phenyl]methyl] oxamide]
≥ 80%: inhibition at 20 ppm [1] | pest or weed control at 200 ppm [2] | pest or weed control at 200 ppm [3] | pest or weed control at 200 ppm [4]

CC(C)(C)C(=O)C(=O)NCc1ccc(-c2noc(C(F)(F)F)n2)c(F)c1F [Compound 1.49, N-[[2,3-difluoro-4-[5-(trifluoromethyl)-1,2,4-oxadiazol-3-yl]phenyl]methyl]-3,3-dimethyl-2-oxo-butanamide]
≥ 80%: inhibition at 20 ppm [1] | pest or weed control at 200 ppm [2] | pest or weed control at 200 ppm [3] | pest or weed control at 200 ppm [4]

CCC(=O)C(=O)NCc1ccc(-c2noc(C(F)(F)F)n2)cc1Cl [Compound 1.64, N-[[2-chloro-4-[5-(trifluoromethyl)-1,2,4-oxadiazol-3-yl]phenyl]methyl]-2-oxo-butanamide]
≥ 80%: inhibition at 20 ppm [1] | pest or weed control at 200 ppm [2] | pest or weed control at 200 ppm [3] | pest or weed control at 200 ppm [4]

CON(Cc1ccc(-c2noc(C(F)(F)F)n2)cc1F)C(=O)C(=O)N(C)C [Compound 4.95, N′-[[2-fluoro-4-[5-(trifluoromethyl)-1,2,4-oxadiazol-3-yl]phenyl]methyl]-N′-methoxy-N,N-dimethyl-oxamide]
≥ 80%: inhibition at 20 ppm [1] | pest or weed control at 200 ppm [2] | pest or weed control at 200 ppm [3] | pest or weed control at 200 ppm [4]

CCON=C(C)C(=O)N(Cc1ccc(-c2noc(C(F)(F)F)n2)cc1)OC [Compound 2.12, 2-ethoxyimino-N-methoxy-N-[[4-[5-(trifluoromethyl)-1,2,4-oxadiazol-3-yl]phenyl]methyl] propanamide]
≥ 80%: inhibition at 20 ppm [1] | pest or weed control at 200 ppm [2] | pest or weed control at 200 ppm [3] | pest or weed control at 200 ppm [4]

NC(=O)C(=O)N(Cc1ccc(-c2noc(C(F)(F)F)n2)cc1)C1COC1 [Compound 4.90, N′-(oxetan-3-yl)-N′-[[4-[5-(trifluoromethyl)-1,2,4-oxadiazol-3-yl]phenyl]methyl] oxamide]
≥ 80%: inhibition at 20 ppm [1] | pest or weed control at 200 ppm [2] | pest or weed control at 200 ppm [3] | pest or weed control at 200 ppm [4]
